Reference: patent US4753953A, “Pyridonecarboxylic acid derivatives and antibacterial pharmaceutical compositions thereof” (priority 1985, dated 1988)
≈ marks a conversion by molar mass, not a printed value. Like-named read-outs stand apart in the source and are kept apart here.

Tests used:
Experiment in all cases: MIC, in vitro antibacterial activity (standard strains)
[1] = system: C. ramosum; type: cell-based; conditions: Thomasclavelia ramosa; 10^6 cells/ml; Gram +; read-out: MIC
[2] = system: Pseudomonas aeruginosa V-1; type: cell-based; conditions: Pseudomonas aeruginosa, V1; 10^6 cells/ml; Gram -; read-out: MIC
[3] = system: Bacteroides fragilis GM 7000; type: cell-based; conditions: Bacteroides fragilis, GM7000; 10^6 cells/ml; Gram -; read-out: MIC
[4] = system: B. fragilis 25285; type: cell-based, Bacteroides fragilis; conditions: Bacteroides fragilis, 25285; 10^6 cells/ml; Gram -; read-out: MIC
[5] = system: B. vulgatus KYA 29327; type: cell-based; conditions: Phocaeicola vulgatus, KYA29327; 10^6 cells/ml; Gram -; read-out: MIC
[6] = system: S. aureus IID 670 (Terajima); type: cell-based, Staphylococcus aureus; conditions: Staphylococcus aureus, IID670; 10^6 cells/ml; Gram +; read-out: MIC
[7] = system: Peptostreptococcus anaerobius KYA 27337; type: cell-based; conditions: Peptostreptococcus anaerobius, KYA27337; 10^6 cells/ml; Gram +; read-out: MIC
[8] = system: Fusobacterium mortiferum 4249; type: cell-based; conditions: Fusobacterium mortiferum, 4249; 10^6 cells/ml; Gram -; read-out: MIC
[9] = system: E. coli ATCC 10536; type: cell-based, Escherichia coli; conditions: Escherichia coli, ATCC10536; 10^6 cells/ml; Gram -; read-out: MIC
[10] = system: P. mirabilis IID 994; type: cell-based; conditions: Proteus mirabilis, IID994; 10^6 cells/ml; Gram -; read-out: MIC
[11] = system: Salmonella enteritidis IID 604; type: cell-based; conditions: Salmonella enterica; 10^6 cells/ml; Gram -; read-out: MIC
[12] = system: B. thetaiotaomicron (0661); type: cell-based; conditions: Bacteroides thetaiotaomicron; 10^6 cells/ml; Gram -; read-out: MIC
[13] = system: Bacillus subtilis PCI 219; type: cell-based; conditions: Bacillus subtilis, PCI219; 10^6 cells/ml; Gram +; read-out: MIC
[14] = system: S. pneumoniae IID 552; type: cell-based; conditions: Streptococcus pneumoniae, IID552; 10^6 cells/ml; Gram +; read-out: MIC
[15] = system: Clostridium difficile I-E; type: cell-based; conditions: Clostridioides difficile; 10^6 cells/ml; Gram +
[16] = system: S. pyogenes IID 692; type: cell-based, Streptococcus pyogenes; conditions: Streptococcus pyogenes, IID692; 10^6 cells/ml; Gram +; read-out: MIC
[17] = system: S. aureus Smith; type: cell-based, Staphylococcus aureus; conditions: Staphylococcus aureus; 10^6 cells/ml; Gram +; read-out: MIC
[18] = system: Veillonella parvula KYA 10790; type: cell-based; conditions: Veillonella parvula, KYA10790; 10^6 cells/ml; Gram -; read-out: MIC
[19] = system: P. aeruginosa IID 1210; type: cell-based, Pseudomonas aeruginosa; conditions: Pseudomonas aeruginosa, IID1210; 10^6 cells/ml; Gram -; read-out: MIC
[20] = system: P. maltophilia GIFU 2491; type: cell-based; conditions: Stenotrophomonas maltophilia, GIFU2491; 10^6 cells/ml; Gram -; read-out: MIC
[21] = system: Morganella morganii IID 602; type: cell-based; conditions: Morganella morganii, IID602; 10^6 cells/ml; Gram -; read-out: MIC
[22] = system: F. varium KYA 8501; type: cell-based; conditions: Fusobacterium varium, KYA8501; 10^6 cells/ml; Gram -; read-out: MIC
[23] = system: Streptococcus pyogenes (S-8); type: cell-based; conditions: Streptococcus pyogenes; 10^6 cells/ml; Gram +; read-out: MIC
[24] = system: Klebsiella pneumoniae KY(GN)6445; type: cell-based; conditions: Klebsiella pneumoniae; 10^6 cells/ml; Gram -; read-out: MIC
[25] = system: Escherichia coli NIHJ JC-2; type: cell-based; conditions: Escherichia coli, NIHJJC2
[26] = system: S. epidermidis IID 866; type: cell-based; conditions: Staphylococcus epidermidis, IID866; 10^6 cells/ml; Gram +; read-out: MIC
[27] = system: Pst. micros UPI 5464-1; type: cell-based; conditions: Parvimonas micra, UPI54641; 10^6 cells/ml; Gram +; read-out: MIC
[28] = system: E. faecalis IID 682; type: cell-based; conditions: Enterococcus faecalis, IID682; 10^6 cells/ml; Gram +; read-out: MIC
[29] = system: Proteus vulgaris IFO 3167; type: cell-based; conditions: Proteus vulgaris, IFO3167; 10^6 cells/ml; Gram -; read-out: MIC
[30] = system: K. pneumoniae 1-220S; type: cell-based, Klebsiella pneumoniae; conditions: Klebsiella pneumoniae, 1220S; 10^6 cells/ml; Gram -; read-out: MIC
[31] = system: B. distasonis 8503; type: cell-based; conditions: Parabacteroides distasonis, 8503; 10^6 cells/ml; Gram -; read-out: MIC
[32] = system: Citrobacter freundii IID 976; type: cell-based; conditions: Citrobacter freundii, IID976; 10^6 cells/ml; Gram -; read-out: MIC
[33] = 10^6 cells/ml, Gram -, read-out: MIC

SMILES | MIC [1] [µg/mL] | MIC [2] [µg/mL] | MIC [3] [µg/mL] | MIC [4] [µg/mL] | MIC [5] [µg/mL] | MIC [6] [µg/mL] | MIC [7] [µg/mL] | MIC [8] [µg/mL] | MIC [9] [µg/mL] | MIC [10] [µg/mL] | MIC [11] [µg/mL] | MIC [12] [µg/mL] | MIC [13] [µg/mL] | MIC [14] [µg/mL] | MIC [15] [µg/mL] | MIC [16] [µg/mL] | MIC [17] [µg/mL] | MIC [18] [µg/mL] | MIC [19] [µg/mL] | MIC [20] [µg/mL] | further results
C[C@H]1CN(c2c(F)cc3c(=O)c(C(=O)O)cn(C4CC4)c3c2F)C[C@H]1N.Cl (relative stereo) [Example 20, 7-(cis-3-Amino-4-methyl-1-pyrrolidinyl)-1-cyclopropyl-6,8-difluoro-1,4-dihydro-4-oxo-3-quinolinecarboxylic acid hydrochloride] | 1.56 | 0.2 | 0.39 | 0.39 | 0.39 | 0.05 | 0.39 | 0.39 | 0.025 | 0.05 | 0.05 | 0.78 | 0.025 | 0.2 | 1.56 | 0.39 | 0.05 | 0.2 | 0.78 | 0.39 | MIC [21]: 0.05 µg/mL; MIC [22]: 1.56 µg/mL; MIC [23]: 0.2 µg/mL; MIC [24]: 0.025 µg/mL; MIC [25]: 0.0125 µg/mL; MIC [26]: 0.05 µg/mL; MIC [27]: 0.2 µg/mL; MIC [28]: 0.2 µg/mL; MIC [29]: 0.025 µg/mL; MIC [30]: 0.05 µg/mL; MIC [31]: 0.78 µg/mL; MIC [32]: 0.025 µg/mL
C[C@H]1CN(c2c(F)cc3c(=O)c(C(=O)O)cn(C4CC4)c3c2Br)C[C@H]1N (relative stereo) [Example 21, 7-(cis-3-Amino-4-methyl-1-pyrrolidinyl)-8-bromo-1-cyclopropyl-6-fluoro-1,4-dihydro-4-oxo-3-quinolinecarboxylic acid] | 0.78 (≈ 1.84 µM) | 0.39 (≈ 0.919 µM) | 0.1 (≈ 0.236 µM) | 0.05 (≈ 0.118 µM) | 0.1 (≈ 0.236 µM) | 0.05 (≈ 0.118 µM) | 0.2 (≈ 0.471 µM) | 0.2 (≈ 0.471 µM) | 0.0125 (≈ 0.0295 µM) | 0.025 (≈ 0.0589 µM) | 0.025 (≈ 0.0589 µM) | 0.2 (≈ 0.471 µM) | 0.0125 (≈ 0.0295 µM) | 0.2 (≈ 0.471 µM) | 0.39 | 0.2 (≈ 0.471 µM) | 0.025 (≈ 0.0589 µM) | 0.1 (≈ 0.236 µM) | 1.56 (≈ 3.68 µM) | 0.05 (≈ 0.118 µM) | MIC [21]: 0.05 µg/mL (≈ 0.118 µM); MIC [22]: 0.78 µg/mL (≈ 1.84 µM); MIC [23]: 0.1 µg/mL (≈ 0.236 µM); MIC [24]: 0.0125 µg/mL (≈ 0.0295 µM); MIC [25, 33]: 0.0063 µg/mL (≈ 0.0148 µM); MIC [26]: 0.05 µg/mL (≈ 0.118 µM); MIC [27]: 0.1 µg/mL (≈ 0.236 µM); MIC [28]: 0.2 µg/mL (≈ 0.471 µM); MIC [29]: 0.0125 µg/mL (≈ 0.0295 µM); MIC [30]: 0.05 µg/mL (≈ 0.118 µM); MIC [31]: 0.39 µg/mL (≈ 0.919 µM); MIC [32]: 0.025 µg/mL (≈ 0.0589 µM)
CCn1cc(C(=O)O)c(=O)c2cc(F)c(N3C[C@@H](N)[C@@H](C)C3)c(Cl)c21 (relative stereo) [Example 23, 7-(cis-3-Amino-4-methyl-1-pyrrolidinyl)-8-chloro-1-ethyl-6-fluoro-1,4-dihydro-4-oxo-3-quinolinecarboxylic acid] | 6.25 (≈ 17 µM) | 0.39 (≈ 1.06 µM) | 0.78 (≈ 2.12 µM) | 0.78 (≈ 2.12 µM) | 1.56 (≈ 4.24 µM) | 0.2 (≈ 0.544 µM) | 1.56 (≈ 4.24 µM) | 1.56 (≈ 4.24 µM) | 0.05 (≈ 0.136 µM) | 0.05 (≈ 0.136 µM) | 0.1 (≈ 0.272 µM) | 1.56 (≈ 4.24 µM) | 0.05 (≈ 0.136 µM) | 0.78 (≈ 2.12 µM) | 6.25 | 0.78 (≈ 2.12 µM) | 0.2 (≈ 0.544 µM) | 0.78 (≈ 2.12 µM) | 6.25 (≈ 17 µM) | 0.39 (≈ 1.06 µM) | MIC [21]: 0.1 µg/mL (≈ 0.272 µM); MIC [22]: 6.25 µg/mL (≈ 17 µM); MIC [23]: 0.78 µg/mL (≈ 2.12 µM); MIC [24]: 0.05 µg/mL (≈ 0.136 µM); MIC [25, 33]: 0.025 µg/mL (≈ 0.068 µM); MIC [26]: 0.2 µg/mL (≈ 0.544 µM); MIC [27]: 0.78 µg/mL (≈ 2.12 µM); MIC [28]: 0.78 µg/mL (≈ 2.12 µM); MIC [29]: 0.05 µg/mL (≈ 0.136 µM); MIC [30]: 0.1 µg/mL (≈ 0.272 µM); MIC [31]: 3.13 µg/mL (≈ 8.51 µM); MIC [32]: 0.05 µg/mL (≈ 0.136 µM)
C[C@H]1CN(c2c(F)cc3c(=O)c(C(=O)O)cn(C4CC4)c3c2Cl)C[C@H]1N (relative stereo) [Example 16, 7-(cis-3-Amino-4-methyl-1-pyrrolidinyl)-8-chloro-1-cyclopropyl-6-fluoro-1,4-dihydro-4-oxo-3-quinolinecarboxylic acid] | 0.39 (≈ 1.03 µM) | 0.1 (≈ 0.263 µM) | 0.05 (≈ 0.132 µM) | 0.05 (≈ 0.132 µM) | 0.05 (≈ 0.132 µM) | 0.05 (≈ 0.132 µM) | 0.1 (≈ 0.263 µM) | 0.1 (≈ 0.263 µM) | 0.0125 (≈ 0.0329 µM) | 0.025 (≈ 0.0658 µM) | 0.025 (≈ 0.0658 µM) | 0.1 (≈ 0.263 µM) | 0.0125 (≈ 0.0329 µM) | 0.1 (≈ 0.263 µM) | 0.39 | 0.1 (≈ 0.263 µM) | 0.025 (≈ 0.0658 µM) | 0.1 (≈ 0.263 µM) | 0.39 (≈ 1.03 µM) | 0.05 (≈ 0.132 µM) | MIC [21]: 0.05 µg/mL (≈ 0.132 µM); MIC [22]: 0.78 µg/mL (≈ 2.05 µM); MIC [23]: 0.1 µg/mL (≈ 0.263 µM); MIC [24]: 0.025 µg/mL (≈ 0.0658 µM); MIC [25, 33]: 0.0063 µg/mL (≈ 0.0166 µM); MIC [26]: 0.05 µg/mL (≈ 0.132 µM); MIC [27]: 0.1 µg/mL (≈ 0.263 µM); MIC [28]: 0.1 µg/mL (≈ 0.263 µM); MIC [29]: 0.0125 µg/mL (≈ 0.0329 µM); MIC [30]: 0.05 µg/mL (≈ 0.132 µM); MIC [31]: 0.2 µg/mL (≈ 0.527 µM); MIC [32]: 0.025 µg/mL (≈ 0.0658 µM)
